# How the values were obtained:
# ARK5/NUAK1 = target: T1, ARK5/NUAK1 (Homo sapiens, UniProt O60285); assay: HotSpot kinase assay; assay type: biochemical; conditions: read-out: % Enzyme Activity (relative to DMSO controls)
# T1 construct: purchased Reaction Biology Corporation
# SNRK = target: T2, SNRK (Homo sapiens, UniProt Q9NRH2); assay: HotSpot kinase assay; assay type: biochemical; conditions: read-out: % Enzyme Activity (relative to DMSO controls)
# T2 construct: purchased Reaction Biology Corporation
# CAMK2b = target: T3, CAMK2b (Homo sapiens, UniProt Q13554); assay: HotSpot kinase assay; assay type: biochemical; conditions: read-out: % Enzyme Activity (relative to DMSO controls)
# T3 construct: purchased Reaction Biology Corporation
# T3 sequence (Q13554 whole entry): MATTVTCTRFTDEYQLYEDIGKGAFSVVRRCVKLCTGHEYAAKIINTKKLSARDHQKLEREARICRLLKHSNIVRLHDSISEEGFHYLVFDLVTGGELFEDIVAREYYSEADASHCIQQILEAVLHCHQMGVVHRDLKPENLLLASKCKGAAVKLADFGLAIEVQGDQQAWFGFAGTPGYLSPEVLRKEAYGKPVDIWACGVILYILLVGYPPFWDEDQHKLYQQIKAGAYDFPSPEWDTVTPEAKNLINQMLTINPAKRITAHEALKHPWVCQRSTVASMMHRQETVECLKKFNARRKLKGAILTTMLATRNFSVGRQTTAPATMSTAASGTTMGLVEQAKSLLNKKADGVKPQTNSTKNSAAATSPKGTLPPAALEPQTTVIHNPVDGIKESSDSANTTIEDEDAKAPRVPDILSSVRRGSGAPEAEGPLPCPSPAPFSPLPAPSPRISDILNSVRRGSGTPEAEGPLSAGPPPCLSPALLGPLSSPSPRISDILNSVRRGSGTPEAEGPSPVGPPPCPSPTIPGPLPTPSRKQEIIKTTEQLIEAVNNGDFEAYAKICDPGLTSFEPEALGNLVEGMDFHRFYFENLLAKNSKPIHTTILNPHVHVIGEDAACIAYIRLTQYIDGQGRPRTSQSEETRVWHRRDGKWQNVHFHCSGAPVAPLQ
# JNK2 = target: T4, JNK2 (Homo sapiens, UniProt P45984); assay: HotSpot kinase assay; assay type: biochemical; conditions: read-out: % Enzyme Activity (relative to DMSO controls)
# T4 construct: purchased Reaction Biology Corporation
# EPHA7 = target: T5, EPHA7 (Homo sapiens, UniProt Q15375); assay: HotSpot kinase assay; assay type: biochemical; conditions: read-out: % Enzyme Activity (relative to DMSO controls)
# T5 construct: purchased Reaction Biology Corporation
# HaCat cells [1] = assay: cell proliferation and viability, ~50% confluence; conditions: 0.1–100 μM, 24 and 72 h; except 72 h at 100 μM
# PAK1 = target: T6, PAK1 (Homo sapiens, UniProt Q13153); assay: HotSpot kinase assay; assay type: biochemical; conditions: read-out: % Enzyme Activity (relative to DMSO controls)
# T6 construct: purchased Reaction Biology Corporation
# DRAK1/STK17A = target: T7, DRAK1/STK17A (Homo sapiens, UniProt Q9UEE5); assay: HotSpot kinase assay; assay type: biochemical; conditions: read-out: % Enzyme Activity (relative to DMSO controls)
# T7 construct: purchased Reaction Biology Corporation
# MSK1/RPS6KA5 = target: T8, MSK1/RPS6KA5 (Homo sapiens, UniProt O75582); assay: HotSpot kinase assay; assay type: biochemical; conditions: read-out: % Enzyme Activity (relative to DMSO controls)
# T8 construct: purchased Reaction Biology Corporation
# NLK = target: T9, NLK (Homo sapiens, UniProt Q9UBE8); assay: HotSpot kinase assay; assay type: biochemical; conditions: read-out: % Enzyme Activity (relative to DMSO controls)
# T9 construct: purchased Reaction Biology Corporation
# DYRK2 = target: T10, DYRK2 (Homo sapiens, UniProt Q92630); assay: HotSpot kinase assay; assay type: biochemical; conditions: read-out: % Enzyme Activity (relative to DMSO controls)
# T10 construct: purchased Reaction Biology Corporation
# CLK2 = target: T11, CLK2 (Homo sapiens, UniProt P49760); assay: HotSpot kinase assay; assay type: biochemical; conditions: read-out: % Enzyme Activity (relative to DMSO controls)
# T11 construct: purchased Reaction Biology Corporation
# SRPK2 = target: T12, SRPK2 (Homo sapiens, UniProt P78362); assay: HotSpot kinase assay; assay type: biochemical; conditions: read-out: % Enzyme Activity (relative to DMSO controls)
# T12 construct: purchased Reaction Biology Corporation
# SGK3/SGKL = target: T13, SGK3/SGKL (Homo sapiens, UniProt Q96BR1); assay: HotSpot kinase assay; assay type: biochemical; conditions: read-out: % Enzyme Activity (relative to DMSO controls)
# T13 construct: purchased Reaction Biology Corporation
# LYN B = target: T14, LYN B (Homo sapiens, UniProt P07948); assay: HotSpot kinase assay; assay type: biochemical; conditions: read-out: % Enzyme Activity (relative to DMSO controls)
# T14 construct: purchased Reaction Biology Corporation
# c-Src = target: T15, c-Src (Homo sapiens, UniProt P12931); assay: biochemical
# T15 construct: purchased Reaction Biology Corporation
# T15 sequence (P12931 whole entry): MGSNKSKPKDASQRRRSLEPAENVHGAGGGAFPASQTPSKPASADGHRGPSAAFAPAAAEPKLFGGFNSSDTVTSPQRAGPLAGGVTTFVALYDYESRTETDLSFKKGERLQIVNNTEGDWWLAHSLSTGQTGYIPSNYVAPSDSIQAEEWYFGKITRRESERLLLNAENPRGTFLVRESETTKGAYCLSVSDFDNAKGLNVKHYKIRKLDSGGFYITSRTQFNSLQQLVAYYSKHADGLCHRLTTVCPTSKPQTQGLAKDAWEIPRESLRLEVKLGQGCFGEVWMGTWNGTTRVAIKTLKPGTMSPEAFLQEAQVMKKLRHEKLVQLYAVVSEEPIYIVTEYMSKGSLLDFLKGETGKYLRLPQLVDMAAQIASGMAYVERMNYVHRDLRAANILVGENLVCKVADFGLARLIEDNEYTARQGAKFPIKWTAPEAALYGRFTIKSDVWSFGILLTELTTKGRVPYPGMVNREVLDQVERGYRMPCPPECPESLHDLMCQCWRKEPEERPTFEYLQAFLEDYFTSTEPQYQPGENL
# [2] = cell proliferation and viability, ~50% confluent; conditions: human, cell proliferation and viability, odu as a percentage of the DMSO control, 120 h (Fig 1d source data)
# GSK3a = target: T16, GSK3a (Homo sapiens, UniProt P49840); assay: HotSpot kinase assay; assay type: biochemical; conditions: read-out: % Enzyme Activity (relative to DMSO controls)
# T16 construct: purchased Reaction Biology Corporation
# HaCat cells [3] = assay: apoptosis assay (activated caspases, SYTOX Green); assay type: cell-based, human; conditions: 10µM
# Protocol: Cell proliferation and viability were determined using the Cell Titer 96 Aqueous One Solution and optical density was determined using a SpectraMax M5e Molecular Devices multidetection microplate reader. […] The cells were then fixed and stained for activated caspases (red) and SYTOX Green (for integrity of plasma membrane) by Image-iT^TM LIVE red Poly Caspase Detection kit. Nuclei were stained with Hoechst. Images were acquired by laser confocal microscope ZeissLive/DuoScan equipped with oil immersion objectives 63 × 1.1 and captured in an optical slice of 0.37 µm with appropriate filters. Alternatively, immunoblots were prepared and probed with antibodies to cleaved PARP-1 or cleaved caspase 8.
# PKCIOTA = target: T17, PKCIOTA (Homo sapiens, UniProt P41743); assay: HotSpot kinase assay; assay type: biochemical; conditions: read-out: % Enzyme Activity (relative to DMSO controls)
# T17 construct: purchased Reaction Biology Corporation
# MARK3 = target: T18, MARK3 (Homo sapiens, UniProt P27448); assay: HotSpot kinase assay; assay type: biochemical; conditions: read-out: % Enzyme Activity (relative to DMSO controls)
# T18 construct: purchased Reaction Biology Corporation
# STK38L/NDR2 = target: T19, STK38L/NDR2 (Homo sapiens, UniProt Q9Y2H1); assay: HotSpot kinase assay; assay type: biochemical; conditions: read-out: % Enzyme Activity (relative to DMSO controls)
# T19 construct: purchased Reaction Biology Corporation
# T19 sequence (Q9Y2H1 whole entry): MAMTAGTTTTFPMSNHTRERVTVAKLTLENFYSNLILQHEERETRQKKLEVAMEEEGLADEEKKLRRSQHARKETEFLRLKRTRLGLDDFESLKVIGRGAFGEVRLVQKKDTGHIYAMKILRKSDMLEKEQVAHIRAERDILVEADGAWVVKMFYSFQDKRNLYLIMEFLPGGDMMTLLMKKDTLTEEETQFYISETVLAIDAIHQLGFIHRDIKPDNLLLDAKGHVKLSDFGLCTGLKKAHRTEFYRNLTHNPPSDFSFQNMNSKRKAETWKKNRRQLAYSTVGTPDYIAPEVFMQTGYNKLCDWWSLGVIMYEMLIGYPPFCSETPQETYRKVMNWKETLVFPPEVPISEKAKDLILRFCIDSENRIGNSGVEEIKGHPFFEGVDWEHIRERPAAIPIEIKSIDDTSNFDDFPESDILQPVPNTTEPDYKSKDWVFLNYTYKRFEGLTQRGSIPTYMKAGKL
# CHK1 = target: T20, CHK1 (Homo sapiens, UniProt O14757); assay: HotSpot kinase assay; assay type: biochemical; conditions: read-out: % Enzyme Activity (relative to DMSO controls)
# T20 construct: purchased Reaction Biology Corporation
# MEKK6 = target: T21, MEKK6 (Homo sapiens, UniProt O95382); assay: HotSpot kinase assay; assay type: biochemical; conditions: read-out: % Enzyme Activity (relative to DMSO controls)
# T21 construct: purchased Reaction Biology Corporation
# GLK/MAP4K3 = target: T22, GLK/MAP4K3 (Homo sapiens, UniProt Q8IVH8); assay: HotSpot kinase assay; assay type: biochemical; conditions: read-out: % Enzyme Activity (relative to DMSO controls)
# T22 construct: purchased Reaction Biology Corporation
# MUSK = target: T23, MUSK (Homo sapiens, UniProt O15146); assay: HotSpot kinase assay; assay type: biochemical; conditions: read-out: % Enzyme Activity (relative to DMSO controls)
# T23 construct: purchased Reaction Biology Corporation
# GSK3b = target: T24, GSK3b (Homo sapiens, UniProt P49841); assay: biochemical; conditions: read-out: % Enzyme Activity (relative to DMSO controls)
# T24 construct: purchased Reaction Biology Corporation
# T24 sequence (P49841 whole entry): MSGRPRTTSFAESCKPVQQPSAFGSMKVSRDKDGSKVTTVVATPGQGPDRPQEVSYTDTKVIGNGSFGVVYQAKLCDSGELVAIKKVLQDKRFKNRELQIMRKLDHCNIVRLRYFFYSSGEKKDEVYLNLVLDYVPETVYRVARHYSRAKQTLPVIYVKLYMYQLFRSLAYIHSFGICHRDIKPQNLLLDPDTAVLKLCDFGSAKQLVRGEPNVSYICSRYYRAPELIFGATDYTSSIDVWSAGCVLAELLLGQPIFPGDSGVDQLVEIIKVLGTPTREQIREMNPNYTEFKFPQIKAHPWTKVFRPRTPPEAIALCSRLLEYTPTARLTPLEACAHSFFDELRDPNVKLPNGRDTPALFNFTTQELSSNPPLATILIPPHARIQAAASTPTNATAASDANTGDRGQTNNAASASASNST
# RSK1 = target: T25, RSK1 (Homo sapiens, UniProt Q15418); assay: HotSpot kinase assay; assay type: biochemical; conditions: read-out: % Enzyme Activity (relative to DMSO controls)
# T25 construct: purchased Reaction Biology Corporation
# CDK1/cyclin B = target: T26, CDK1/cyclin B (Homo sapiens, UniProt P06493); assay: HotSpot kinase assay; assay type: biochemical; conditions: read-out: % Enzyme Activity (relative to DMSO controls)
# T26 construct: purchased Reaction Biology Corporation
# CLK1 = target: T27, CLK1 (Homo sapiens, UniProt P49759); assay: HotSpot kinase assay; assay type: biochemical; conditions: read-out: % Enzyme Activity (relative to DMSO controls)
# T27 construct: purchased Reaction Biology Corporation
# ROCK2 = target: T28, ROCK2 (Homo sapiens, UniProt O75116); assay: HotSpot kinase assay; assay type: biochemical; conditions: read-out: % Enzyme Activity (relative to DMSO controls)
# T28 construct: purchased Reaction Biology Corporation
# EPHB3 = target: T29, EPHB3 (Homo sapiens, UniProt P54753); assay: HotSpot kinase assay; assay type: biochemical; conditions: read-out: % Enzyme Activity (relative to DMSO controls)
# T29 construct: purchased Reaction Biology Corporation
# SRPK1 = target: T30, SRPK1 (Homo sapiens, UniProt Q96SB4); assay: HotSpot kinase assay; assay type: biochemical; conditions: read-out: % Enzyme Activity (relative to DMSO controls)
# T30 construct: purchased Reaction Biology Corporation
# ROS/ROS1 = target: T31, ROS/ROS1 (Homo sapiens, UniProt P08922); assay: HotSpot kinase assay; assay type: biochemical; conditions: read-out: % Enzyme Activity (relative to DMSO controls)
# T31 construct: purchased Reaction Biology Corporation
# T31 sequence (P08922 28-2347): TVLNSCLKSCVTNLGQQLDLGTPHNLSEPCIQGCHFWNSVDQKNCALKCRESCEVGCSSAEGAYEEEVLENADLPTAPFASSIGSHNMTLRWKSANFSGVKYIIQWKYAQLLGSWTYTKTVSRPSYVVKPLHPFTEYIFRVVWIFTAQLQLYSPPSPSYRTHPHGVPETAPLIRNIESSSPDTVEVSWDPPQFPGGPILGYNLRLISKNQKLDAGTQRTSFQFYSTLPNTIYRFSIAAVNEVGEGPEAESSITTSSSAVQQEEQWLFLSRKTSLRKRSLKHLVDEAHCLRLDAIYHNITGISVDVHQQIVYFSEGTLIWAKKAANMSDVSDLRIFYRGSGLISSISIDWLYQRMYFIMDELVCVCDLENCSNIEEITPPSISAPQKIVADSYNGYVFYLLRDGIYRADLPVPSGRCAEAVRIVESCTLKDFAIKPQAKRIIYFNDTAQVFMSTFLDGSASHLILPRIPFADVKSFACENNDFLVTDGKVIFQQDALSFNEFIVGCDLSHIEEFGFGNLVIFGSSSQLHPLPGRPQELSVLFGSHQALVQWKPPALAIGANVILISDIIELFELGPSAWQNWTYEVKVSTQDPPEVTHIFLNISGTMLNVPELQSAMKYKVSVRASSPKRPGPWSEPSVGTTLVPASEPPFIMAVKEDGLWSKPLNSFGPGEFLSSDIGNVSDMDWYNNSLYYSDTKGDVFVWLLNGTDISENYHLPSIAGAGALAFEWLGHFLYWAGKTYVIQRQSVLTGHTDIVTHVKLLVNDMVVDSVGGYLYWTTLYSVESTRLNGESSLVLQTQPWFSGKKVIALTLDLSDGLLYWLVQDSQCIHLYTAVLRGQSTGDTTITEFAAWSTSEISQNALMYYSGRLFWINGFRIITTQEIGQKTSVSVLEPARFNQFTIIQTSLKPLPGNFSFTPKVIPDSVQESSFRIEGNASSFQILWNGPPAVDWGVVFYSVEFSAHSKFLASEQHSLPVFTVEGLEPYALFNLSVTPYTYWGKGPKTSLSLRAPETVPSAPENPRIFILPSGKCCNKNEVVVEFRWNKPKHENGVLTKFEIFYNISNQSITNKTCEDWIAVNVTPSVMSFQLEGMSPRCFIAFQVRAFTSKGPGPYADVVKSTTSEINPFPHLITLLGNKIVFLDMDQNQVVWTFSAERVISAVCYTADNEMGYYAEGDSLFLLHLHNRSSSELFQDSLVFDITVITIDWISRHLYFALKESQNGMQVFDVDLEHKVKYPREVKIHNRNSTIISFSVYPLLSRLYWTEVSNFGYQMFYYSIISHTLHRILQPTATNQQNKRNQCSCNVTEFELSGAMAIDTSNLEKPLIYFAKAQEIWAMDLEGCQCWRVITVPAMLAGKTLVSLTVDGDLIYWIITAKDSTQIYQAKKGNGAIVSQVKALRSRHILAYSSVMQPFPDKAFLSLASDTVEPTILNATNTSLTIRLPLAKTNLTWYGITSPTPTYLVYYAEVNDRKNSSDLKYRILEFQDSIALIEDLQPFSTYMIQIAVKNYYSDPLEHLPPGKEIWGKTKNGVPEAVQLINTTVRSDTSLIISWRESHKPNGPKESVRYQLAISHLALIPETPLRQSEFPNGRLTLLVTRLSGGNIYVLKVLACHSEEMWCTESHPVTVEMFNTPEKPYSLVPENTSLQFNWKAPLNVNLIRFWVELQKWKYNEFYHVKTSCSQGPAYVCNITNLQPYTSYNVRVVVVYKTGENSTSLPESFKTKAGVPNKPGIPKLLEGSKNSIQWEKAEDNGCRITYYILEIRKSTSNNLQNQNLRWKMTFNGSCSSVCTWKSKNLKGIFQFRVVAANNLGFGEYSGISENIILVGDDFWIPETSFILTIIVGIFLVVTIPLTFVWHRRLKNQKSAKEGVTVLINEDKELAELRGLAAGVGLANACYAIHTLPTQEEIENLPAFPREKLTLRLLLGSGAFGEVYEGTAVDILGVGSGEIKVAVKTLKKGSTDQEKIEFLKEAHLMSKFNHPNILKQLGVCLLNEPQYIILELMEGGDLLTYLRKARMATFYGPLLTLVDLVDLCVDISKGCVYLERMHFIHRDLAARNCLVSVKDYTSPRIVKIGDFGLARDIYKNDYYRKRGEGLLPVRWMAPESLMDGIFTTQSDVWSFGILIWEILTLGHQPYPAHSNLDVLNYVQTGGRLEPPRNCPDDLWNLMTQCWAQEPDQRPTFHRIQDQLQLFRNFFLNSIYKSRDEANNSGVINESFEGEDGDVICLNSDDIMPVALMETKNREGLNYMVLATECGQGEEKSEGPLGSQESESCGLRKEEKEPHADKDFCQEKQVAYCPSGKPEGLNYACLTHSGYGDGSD
# TAK1 = target: T32, TAK1 (Homo sapiens, UniProt O43318); assay: HotSpot kinase assay; assay type: biochemical; conditions: read-out: % Enzyme Activity (relative to DMSO controls)
# T32 construct: purchased Reaction Biology Corporation
# T1 sequence (O60285 whole entry): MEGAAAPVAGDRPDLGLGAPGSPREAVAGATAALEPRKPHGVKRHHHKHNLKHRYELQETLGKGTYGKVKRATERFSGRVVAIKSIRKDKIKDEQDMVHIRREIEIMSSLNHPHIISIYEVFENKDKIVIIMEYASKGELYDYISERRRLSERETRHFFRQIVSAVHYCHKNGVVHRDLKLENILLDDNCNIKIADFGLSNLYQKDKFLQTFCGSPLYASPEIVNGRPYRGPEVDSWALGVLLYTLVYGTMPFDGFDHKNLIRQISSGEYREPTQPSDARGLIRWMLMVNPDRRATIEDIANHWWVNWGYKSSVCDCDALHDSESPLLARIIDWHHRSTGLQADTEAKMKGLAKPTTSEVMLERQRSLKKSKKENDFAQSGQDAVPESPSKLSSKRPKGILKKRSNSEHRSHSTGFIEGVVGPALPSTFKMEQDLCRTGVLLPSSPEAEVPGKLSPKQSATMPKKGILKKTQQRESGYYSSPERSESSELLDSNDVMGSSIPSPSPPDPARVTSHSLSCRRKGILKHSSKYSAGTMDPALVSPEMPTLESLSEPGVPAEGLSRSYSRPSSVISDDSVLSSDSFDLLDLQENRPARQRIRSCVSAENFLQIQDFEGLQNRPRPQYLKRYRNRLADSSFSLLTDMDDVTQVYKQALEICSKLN
smiles,measurement,setting,value
CO[C@@H]1[C@H](N(C)C(=O)CCC(=O)NCc2cn(CCCS(=O)(=O)O)nn2)C[C@H]2O[C@]1(C)n1c3ccccc3c3c4c(c5c6ccccc6n2c5c31)C(=O)NC4 [CIMSS],remaining activity at 10 µM,ARK5/NUAK1,1.83%
same,remaining activity at 10 µM,SNRK,72.5%
same,remaining activity at 10 µM,CAMK2b,3.03%
same,remaining activity at 10 µM,JNK2,42.3%
same,remaining activity at 10 µM,EPHA7,6.91%
same,inhibition of cell growth,HaCat cells [1],no significant inhibition
same,remaining activity at 10 µM,PAK1,8.08%
same,remaining activity at 10 µM,DRAK1/STK17A,18.2%
same,remaining activity at 10 µM,MSK1/RPS6KA5,1.53%
same,remaining activity at 10 µM,NLK,73%
same,remaining activity at 10 µM,DYRK2,9.12%
same,remaining activity at 10 µM,CLK2,4.13%
same,remaining activity at 10 µM,SRPK2,8.02%
same,remaining activity at 10 µM,SGK3/SGKL,59.6%
same,remaining activity at 10 µM,LYN B,2.95%
same,IC50,"c-Src; Supplementary Table 1, read-out: IC50 (Molar concentration)",11.9 nM
same,remaining activity at 10 µM,"c-Src; read-out: % Enzyme Activity (relative to DMSO controls), 10µM",2.95%
same,"viability at 120 h, 10 µM",[2]; 10 μM,102%
same,"viability at 120 h, 50 µM",[2]; 50 μM,93%
same,remaining activity at 10 µM,GSK3a,2.72%
same,induction of apoptosis,HaCat cells [3],did not induce apoptosis
same,remaining activity at 10 µM,PKCIOTA,31.5%
same,remaining activity at 10 µM,MARK3,1.8%
same,remaining activity at 10 µM,STK38L/NDR2,22.7%
same,remaining activity at 10 µM,CHK1,4.66%
same,remaining activity at 10 µM,MEKK6,110%
same,remaining activity at 10 µM,GLK/MAP4K3,0.96%
same,remaining activity at 10 µM,MUSK,3.33%
same,remaining activity at 10 µM,GSK3b,2.85%
same,remaining activity at 10 µM,RSK1,3.27%
same,remaining activity at 10 µM,CDK1/cyclin B,13.6%
same,remaining activity at 10 µM,CLK1,4.05%
same,remaining activity at 10 µM,ROCK2,12.7%
same,remaining activity at 10 µM,EPHB3,28.9%
same,remaining activity at 10 µM,SRPK1,9.17%
same,remaining activity at 10 µM,ROS/ROS1,4.57%
same,remaining activity at 10 µM,TAK1,7.2%
